# Values joined by “and” are separate entries in the source; they are usually repeats but may differ in a detail not shown here. Equal entries are not always repeated.
# Biological target: Genome polyprotein (dengue virus type 2, UniProt P29990)
# Type: functional, Thailand/16681/1984
# Chain of Genome polyprotein (P29990 1346-1475 limits assumed): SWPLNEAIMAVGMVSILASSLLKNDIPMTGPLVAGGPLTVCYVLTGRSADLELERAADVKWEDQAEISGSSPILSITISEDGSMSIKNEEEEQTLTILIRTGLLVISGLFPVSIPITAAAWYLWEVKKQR
# Chain of Genome polyprotein (P29990 1476-2093 limits assumed): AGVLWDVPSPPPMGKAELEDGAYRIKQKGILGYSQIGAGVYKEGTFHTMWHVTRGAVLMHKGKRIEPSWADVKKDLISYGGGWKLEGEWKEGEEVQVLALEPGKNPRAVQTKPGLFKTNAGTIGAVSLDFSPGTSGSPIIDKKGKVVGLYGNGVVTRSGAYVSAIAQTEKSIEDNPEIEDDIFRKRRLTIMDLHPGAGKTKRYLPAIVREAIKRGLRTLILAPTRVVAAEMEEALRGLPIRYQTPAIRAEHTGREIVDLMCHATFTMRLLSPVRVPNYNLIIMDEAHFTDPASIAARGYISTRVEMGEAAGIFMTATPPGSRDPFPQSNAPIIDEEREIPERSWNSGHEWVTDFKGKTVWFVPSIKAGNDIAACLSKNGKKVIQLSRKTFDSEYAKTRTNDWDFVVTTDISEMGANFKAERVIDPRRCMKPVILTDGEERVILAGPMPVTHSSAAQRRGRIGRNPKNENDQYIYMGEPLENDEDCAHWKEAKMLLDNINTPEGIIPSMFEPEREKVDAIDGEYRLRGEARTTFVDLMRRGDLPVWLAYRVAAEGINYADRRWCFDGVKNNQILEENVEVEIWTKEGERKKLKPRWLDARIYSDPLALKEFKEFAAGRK
row,SMILES,IC50
1,Cc1cc(C(=O)Nc2ccc3c(c2)CNC3)c2cn[nH]c2c1,> 99.5 µM
2,Cc1ccc(S(=O)(=O)CNC(=O)[C@H](Nc2ccc3c(c2)CNC3)c2cc(Cl)cc3[nH]ncc23)cc1,> 99.5 µM
3,CC(C)(C)c1ccc(Cl)cc1C(=O)Nc1ccc2c(c1)CNC2,> 99.5 µM
4,Cc1n[nH]c2nc(Cl)cc(C(=O)Nc3ccc4c(c3)CNC4)c12,> 99.5 µM
5,O=C(Cc1cccc2[nH]ncc12)Nc1ccc2c(c1)CNC2,> 99.5 µM
6,C=C1C[C@H](c2cccc(CN)c2)[C@@H](c2cc(Cl)cc(NC(=O)OCc3ccccc3)c2)C1,> 99.5 µM
7,O=C(Nc1ccc2c(c1)CNC2)c1cc(Cl)ccc1SC1CCCC1,> 99.5 µM
8,O=C(Nc1ccc2c(c1)CNC2)c1cc(F)cc2[nH]nnc12,> 99.5 µM
9,Clc1ccc2ncn(Cc3ccc4c(c3)CNC4)c2c1,> 99.5 µM
10,Clc1ccc2c(c1)ncn2Cc1ccc(-c2nn[nH]n2)cc1,> 99.5 µM
11,O=C(Nc1ccc2c(c1)CNC2)c1ncc(Br)s1,> 99.5 µM
12,O=C(Nc1ccc2c(c1)CNC2)c1ncnc2ccsc12,> 99.5 µM
13,COC(=O)CNC(=O)[C@H](Nc1ccc2c(c1)CNC2)c1cc(Cl)cc(C2CC2)c1,> 99.5 µM
14,Cc1c(C(=O)Nc2cc(CCCN)ccn2)cc(-c2ccccc2)n1C,> 99.5 µM
15,O=C(Nc1ccc2c(c1)CNC2)N1C[C@H](C(F)F)C2(CC2)C1,> 99.5 µM
16,O=C(c1cc(Cl)cc2[nH]ncc12)N1CCC[C@H]1C1CCNCC1,> 99.5 µM
17,O=C1CCc2cc(NC(=O)c3cc(Cl)cc4[nH]ncc34)ccc2N1,> 99.5 µM
18,Cc1c(C(=O)Nc2cc(CCCN)ccn2)cc(C#N)n1C,> 99.5 µM
19,CC(C)NC(=O)[C@H](Nc1ccc2c(c1)C(=O)OC2)c1cc(Cl)cc2[nH]ncc12,> 99.5 µM
20,O=C(O)c1sc2cccnc2c1Br,> 99.5 µM
21,FC(F)(F)c1nc(CNCc2cocn2)cs1,> 99.5 µM
22,O=Cc1ccc(N2CCC(C(=O)N3CCN(c4ccc([N+](=O)[O-])cc4C(F)(F)F)CC3)CC2)cc1,> 99.9 µM
23,COc1ccc2c(O)nn(S(=O)(=O)c3ccc(C(=O)O)cc3)c2c1,> 99.5 µM
24,COc1nc(Cl)c(CSc2nc(C)co2)s1,> 99.5 µM

row,SMILES,IC50
1,NC(=O)c1ccc(Cn2nnc(C=Cc3ccccc3)n2)cc1,> 99.5 µM
2,O=Cc1ccc(N2CCC(C(=O)Nc3cccc(Br)n3)CC2)cc1,14.4 µM
3,Cc1nnnn1Cc1ncc(Br)s1,> 99.5 µM
4,O=Cc1ccc(N2CCC(C(=O)NCCc3ccc(O)c(O)c3)CC2)cc1,35 µM
5,O=C(O)c1c(Br)sc2nnsc12,69.5 µM
6,O=S(=O)(CCOc1ccccc1)c1nccs1,> 99.5 µM
7,O=c1[nH]c(CSc2ccccc2Cl)nc2ccsc12,> 99.5 µM
8,CN1[C@@H]2CCC[C@H]1C[C@@H](NC(=O)C1CCN(c3ccc(C=O)cc3)CC1)C2,98.7 µM
9,Cc1nnc(CSc2ncnc3sccc23)o1,> 99.5 µM
10,Cn1ncnc1Sc1nc(C2CCCC2)ns1,> 99.5 µM
11,CC(C)NC(=O)[C@H](Nc1ccc2c(c1)CNC2)c1cc(Cl)cc2[nH]c(-c3ccccc3)nc12,10.2 µM and 4.1 µM and 35.8 µM
12,O=C1OCc2ccc(NC(=O)[C@H]3CCNC34CCCC4)cc21,> 99.5 µM
13,C=CC[C@H](Nc1cc([C@H]2CCOC2)ccn1)c1cc(C2CC2)n(C)n1,> 99.5 µM
14,O=C(Nc1ccc2c(c1)CNC2)c1cc(Cl)cc2nn[nH]c12,> 99.5 µM
15,NCCCOc1cc(-c2ccc(N)nc2)cc2c1COB2O,> 99.5 µM
16,O=c1c2ccccc2nnn1CSc1nnc(-c2ccccc2)o1,> 99.5 µM
17,O=Cc1ccc(N2CCC(C(=O)N3CCC(N4CCc5ccccc5C4)CC3)CC2)cc1,> 99.9 µM
18,COCc1nn(CC#Cc2ccc(Cl)cc2)c(=O)o1,> 99.5 µM
19,[O-][S@@+](Cc1ncccn1)c1ncccc1Br,> 99.5 µM
20,O=C(Nc1cc(Cl)cc(C(=O)Nc2ccc3c(c2)C[C@H](F)C3)c1)OCc1ccccc1,> 99.5 µM
21,O=S(=O)(c1cccs1)N1CCN(CC=Cc2ccccc2)CC1,> 99.5 µM
22,CS(=O)(=O)Nc1cccc(C(=O)Nc2ccc3c(c2)CNC3)c1,> 99.5 µM
23,O=C(O)c1cc2cc(-c3nccc(C(F)F)n3)ccc2[nH]1,> 99.5 µM
24,NC[C@@H]1CN(c2cc(-c3ccc(N)nc3)cc3c2COB3O)C(=O)O1,> 99.5 µM

row,SMILES,IC50
1,COCc1cc(Cl)cc(S(=O)(=O)Nc2cccc(-c3nnn[nH]3)c2)c1,> 99.5 µM
2,CSC1(C(=O)N[C@H](CC(=O)Nc2cccc(CN)c2)c2ccc(OCc3ccccc3)c(Br)c2)CCC1,34.9 µM
3,O=Cc1ccc(N2CCC(C(=O)NC[C@H](O)c3ccc(O)c(O)c3)CC2)cc1,33.4 µM
4,CC(C)c1nn(C)cc1-c1cc(F)cc(C(=O)Nc2ccc3c(c2)CNC3)c1,> 99.5 µM
5,CC(C)[C@@H]1C(=O)O[C@H]1C(=O)O,> 99.5 µM
6,O=Cc1ccc(N2CCC(C(=O)NCc3cccc(-c4ccccc4)c3)CC2)cc1,53.3 µM
7,COc1cc(C(=O)Nc2ccc3c(c2)CNC3)cc2ccoc12,> 99.5 µM
8,O=C1OCc2ccc(NC(=O)c3cc(F)cc4[nH]ncc34)cc21,> 99.5 µM
9,O=Cc1ccc(N2CCC(C(=O)N3CCC(CCN4CCCC4)CC3)CC2)cc1,> 99.9 µM
10,O=Cc1ccc(N2CCC(C(=O)NCCc3ccccc3[N+](=O)[O-])CC2)cc1,93.9 µM
11,CCN1CCN(c2ccc(NC(=O)C3CCN(c4ccc(C=O)cc4)CC3)cc2)CC1,73 µM
12,CS(=O)(=O)c1ccc(N2CCN(C(=O)C3CCN(c4ccc(C=O)cc4)CC3)CC2)c([N+](=O)[O-])c1,85.7 µM
13,CCSc1ccc(Cl)cc1C(=O)Nc1ccc2c(c1)CNC2,> 99.5 µM
14,Cc1c(CN)c(C(=O)Nc2cc(-c3cccnc3)ccn2)nn1C,> 99.5 µM
15,Brc1ccsc1CSc1cnn[nH]1,> 99.5 µM
16,O=Cc1ccc(N2CCC(C(=O)NCCN3CCc4ccccc43)CC2)cc1,20.3 µM
17,Cc1sc2nc(-c3cccs3)[nH]c(=O)c2c1C,> 99.5 µM
18,Clc1snnc1CN1CCC(c2nc3ccccc3o2)CC1,> 99.5 µM
19,O=C(Nc1ccc(Cl)cc1C(=O)Nc1cccc(C2CCNCC2)c1)OCc1ccccc1,> 99.5 µM
20,NCc1ccc(COc2ccc(-c3ccc(N)nc3)c3c2OB(O)CC3)cc1,> 99.5 µM
21,C[C@H]1c2cc(O)c(O)cc2CCN1C(=O)C1CCN(c2ccc(C=O)cc2)CC1,80.5 µM
22,O=c1oc2cccnc2n1CC=Cc1ccccc1,> 99.5 µM
23,O=Cc1ccc(N2CCC(C(=O)NC[C@@H]3CCCN4CCCC[C@H]34)CC2)cc1,> 99.9 µM
24,O=C(Nc1cc(-c2cccnc2)ccn1)c1nc(Br)n2c1CNCC2,> 99.5 µM

row,SMILES,IC50
1,CCNC(=O)Nc1cc(Cl)cc(C(=O)Nc2cccc(C3CCNCC3)c2)c1,> 99.5 µM
2,O=Cc1ccc(N2CCC(C(=O)Nc3ccc(Br)cc3O)CC2)cc1,33.9 µM
3,NCCCOc1cc2c(c(-c3ccc(N)nc3)c1)CCB(O)O2,> 99.5 µM
4,Nc1nc(S(=O)(=O)c2ccccc2)c(Cl)s1,> 99.5 µM
5,CC(C)[C@H](N)P(=O)(Oc1ccc(F)cc1)Oc1ccc(F)cc1,> 99.5 µM
6,O=Cc1ccc(N2CCC(C(=O)NCCC3CCN(Cc4ccccc4)CC3)CC2)cc1,99.7 µM
7,O=C(NCC1CCCCC1)[C@H]1CCCN1C(=O)Nc1ccc2c(c1)CNC2,> 99.5 µM
8,CN(C)CCC(=O)N1CCC([C@@H](NC(=O)OCc2ccccc2)C(=O)Nc2cccc(CN)c2)CC1,> 99.5 µM
9,c1cc(C2CCN(Cc3c[nH]c4ccccc34)CC2)c2ccncc2c1,> 99.5 µM
10,N#C[C@H](Nc1ccc2c(c1)CNC2)c1cc(Cl)cc2c1OCC2,> 99.5 µM
11,c1cc(-c2nnc(NCc3nnn[nH]3)s2)no1,> 99.5 µM
12,O=C(Nc1cc(-c2cccnc2)ccn1)c1cc2n(c1)CCC2,> 99.5 µM
13,CC1CCN(CCCCNC(=O)C2CCN(c3ccc(C=O)cc3)CC2)CC1,> 99.9 µM
14,COc1ccc(-n2nnnc2SC(F)F)cc1,> 99.5 µM
15,O=C(Nc1ccc2c(c1)CNC2)c1cc(Cl)cc(C(F)(F)F)n1,22.5 µM
16,O=c1ccccn1-c1ncc(Br)cn1,> 99.5 µM
17,NCc1cccc(NC(=O)[C@@H](NC(=O)OCc2ccccc2)c2cccc(-c3cncnc3)c2)c1,> 99.5 µM
18,Cc1ccc2cccc(NC(=O)C3CCN(c4ccc(C=O)cc4)CC3)c2n1,22.4 µM
19,O=C(Nc1ccc2c(c1)CNC2)c1cccc2c1OCO2,> 99.5 µM
20,O=Cc1ccc(N2CCC(C(=O)NCC(=O)c3ccc(O)cc3)CC2)cc1,52.9 µM
21,O=C(Nc1ccc2c(c1)CNC2)c1cccc2nc(C(F)(F)F)[nH]c12,> 99.5 µM
22,Cc1nnsc1Cn1ccc(Br)n1,> 99.5 µM
23,Cc1c(C(=O)Nc2cc(-c3cccnc3)ccn2)c2ccccc2n1C,> 99.5 µM
24,C#C[C@H](Nc1ccc2c(c1)CNC2)c1cccc2c1CCNC2=O,> 99.5 µM

row,SMILES,IC50
1,O=S1(=O)CCN(CC#Cc2ccc3sncc3c2)CC1,> 99.5 µM
2,Cc1c(C(=O)Nc2cccc(-c3cncnc3O)c2)cc(C2CC2)n1C,> 99.5 µM
3,COC(=O)c1cc2scc(Br)c2[nH]1,> 99.5 µM
4,CC(=O)Nc1cccc(CNC(=O)C2CCN(c3ccc(C=O)cc3)CC2)c1,98.1 µM
5,O=C(Nc1cc(Cl)cc(C(=O)N[C@]2(c3nnn[nH]3)CCOC2)c1)OCc1ccccc1,> 99.5 µM
6,N#Cc1csc(CSc2nnc(C(F)(F)F)s2)n1,> 99.5 µM
7,O=Cc1ccc(N2CCC(C(=O)N3CCN(c4cccc(O)c4)CC3)CC2)cc1,78.2 µM
8,c1cc(Cc2noc(CCc3cscn3)n2)no1,> 99.5 µM
9,O=C1CC[C@H]2[C@H](CCN2C(=O)c2ccc3c(c2)CNC3)N1,> 99.5 µM
10,CCn1c(=O)c(N2CC[C@H](CO)C2)nc2ccc(C(=O)OC)cc21,82.9 µM
11,FC(F)(F)c1nnc(COc2cncnc2)s1,> 99.5 µM
12,O=Cc1ccc(N2CCC(C(=O)Nc3ncc(Br)cc3O)CC2)cc1,19.1 µM
13,NC(=O)C1(N2CCCCC2)CCN(C(=O)C2CCN(c3ccc(C=O)cc3)CC2)CC1,> 24.9 µM
14,CCc1cc(C(=O)Nc2cccc(-c3nnn[nH]3)c2)sc1-c1ccc(Cl)cc1,6.08 µM and 5.66 µM
15,O=Cc1ccc(N2CCC(C(=O)N3CCN(CCc4ccccc4)CC3)CC2)cc1,35.6 µM
16,CC(C)[C@H]1C(=O)O[C@@H]1C(=O)O,> 99.5 µM
17,CSCc1nnc(SCc2ccncc2)o1,> 99.5 µM
18,CC(C)[C@H](NC(=O)[C@@H]1CCCN1C(=O)OCc1ccccc1)P(=O)(Oc1ccc(F)cc1)Oc1ccc(F)cc1,> 99.5 µM
19,Clc1ccc2[nH]ncc2c1[C@@H]1C[C@H]1c1ccc2c(c1)CNC2,> 99.5 µM
20,O=C(Nc1cc(Cl)cc(C(=O)Nc2ccc3c(c2)CNCC3)c1)OCc1ccccc1,57.8 µM
21,Cc1cc(C(=O)Nc2cc(-c3cccnc3)ccn2)nn1CCN,> 99.5 µM

# Source: ChEMBL document CHEMBL5604063, “ASAP - DENV-2 NS2B-NS3 protease fluorescence dose response” (2024)
